{
  "source": "ChEMBL document CHEMBL5236548",
  "about": "“Marine Natural Products: A Potential Source of Anti-hepatocellular Carcinoma Drugs” (J Med Chem, 2021)",
  "key": {"HepG2 [1]": {"tested_on": "HepG2", "assay": "Antiproliferative activity against human HepG2 cells assessed as reduction in cell viability at 50 ug/ml measured after 24 hrs relative to control", "format": "functional, cell-based", "settings": "HepG2, 24 h"}, "[2]": {"assay": "[…] of cell cycle arrest in human HCCLM3 cells assessed as accumulation of cells at S phase at 25 uM relative to control", "format": "functional", "set-up": "scale not given: the % may be the effect or the level left"}, "[3]": {"assay": "[…] of cell cycle arrest in human HCCLM3 cells assessed as accumulation of cells at G2/M phase at 25 uM relative to control", "format": "functional", "set-up": "scale not given: the % may be the effect or the level left"}, "[4]": {"assay": "[…] of cell cycle arrest in human HepG2 cells assessed as accumulation of cells at S phase at 50 uM relative to control", "format": "functional", "set-up": "scale not given: the % may be the effect or the level left"}, "[5]": {"assay": "Antitumor activity against human HCCLM3 cells xenografted in BALB/c nude mouse assessed as inhibition of tumor growth at 20 mg/kg measured for 14 days relative to control", "format": "functional", "settings": "HCCLM3, 336 h, time 14 day"}, "[6]": {"assay": "Antitumor activity against human HCCLM3 cells xenografted in BALB/c nude mouse assessed as reduction in Ki67 at 20 mg/kg measured for 14 days (reference value: 41.67+/-7.22% )", "format": "functional", "set-up": "scale not given: the % may be the effect or the level left", "settings": "time 14 day"}, "[7]": {"assay": "[…] of cell cycle arrest in human HepG2 cells assessed as accumulation of cells at G2/M phase at 50 uM relative to control", "format": "functional", "set-up": "scale not given: the % may be the effect or the level left"}, "SK-HEP1": {"tested_on": "SK-HEP1", "assay": "Cytotoxicity against human SK-HEP1 cells measured after 1 hr by SRB assay", "format": "functional, cell-based", "settings": "SK-HEP1, 1 h"}, "PLC-PRF-5 [8]": {"tested_on": "PLC-PRF-5", "assay": "Cytotoxicity against human PLC-PRF-5 cells measured after 1 hr by SRB assay", "format": "functional, cell-based", "settings": "PLC-PRF-5, 1 h"}, "Hep 3B2 [9]": {"tested_on": "Hep 3B2", "assay": "Cytotoxicity against human Hep3B cells measured after 1 hr by SRB assay", "format": "functional, cell-based"}, "HepG2 [10]": {"tested_on": "HepG2", "assay": "Cytotoxicity against human HepG2 cells measured after 1 hr by SRB assay", "format": "functional, cell-based", "settings": "HepG2, 1 h"}, "[11]": {"assay": "Cytotoxicity against human Huh-7D12 cells measured after 1 hr by SRB assay", "format": "functional, cell-based", "settings": "Huh-7D12, 1 h"}, "PLC-PRF-5 [12]": {"tested_on": "PLC-PRF-5", "assay": "Induction of cell cycle arrest in human PLC-PRF-5 cells assessed as accumulation of cells at G0/G1 phase at 50 nM incubated for 24 hrs relative to control", "format": "functional"}, "SMMC-7721 [13]": {"tested_on": "SMMC-7721", "assay": "Antitumor activity against human SMMC-7721 cells xenografted in mouse assessed as reduction in tumor growth at 25 microg/kg administered daily for 40 days relative to control", "format": "functional", "set-up": "scale not given: the % may be the effect or the level left", "settings": "dose 25 µg/kg; time 40 day"}, "PLC-PRF-5 [14]": {"tested_on": "PLC-PRF-5", "assay": "Induction of cell cycle arrest in human PLC-PRF-5 cells assessed as accumulation of cells at G0/G1 phase at 100 nM incubated for 24 hrs relative to control", "format": "functional"}, "PLC-PRF-5 [15]": {"tested_on": "PLC-PRF-5", "assay": "Induction of cell cycle arrest in human PLC-PRF-5 cells assessed as accumulation of cells at G0/G1 phase at 200 nM incubated for 24 hrs relative to control", "format": "functional"}, "SMMC-7721 [16]": {"tested_on": "SMMC-7721", "assay": "Induction of cell cycle arrest in human SMMC-7721 cells assessed as accumulation of cells at G0/G1 phase at 50 nM incubated for 24 hrs relative to control", "format": "functional"}, "SMMC-7721 [17]": {"tested_on": "SMMC-7721", "assay": "Induction of cell cycle arrest in human SMMC-7721 cells assessed as accumulation of cells at G0/G1 phase at 200 nM incubated for 24 hrs relative to control", "format": "functional"}, "SMMC-7721 [18]": {"tested_on": "SMMC-7721", "assay": "Induction of cell cycle arrest in human SMMC-7721 cells assessed as accumulation of cells at G0/G1 phase at 100 nM incubated for 24 hrs relative to control", "format": "functional"}, "SMMC-7721 [19]": {"tested_on": "SMMC-7721", "assay": "Antitumor activity against human SMMC-7721 cells xenografted in mouse assessed as reduction in tumor growth at 50 microg/kg administered daily for 40 days relative to control", "format": "functional", "set-up": "scale not given: the % may be the effect or the level left", "settings": "dose 50 µg/kg; time 40 day"}, "Hep 3B2 [20]": {"tested_on": "Hep 3B2", "assay": "Cytotoxicity against human Hep3B cells by SRB assay", "format": "functional, cell-based"}, "[21]": {"assay": "Cytotoxicity against human HCC cells by SRB assay", "format": "functional, cell-based"}, "Bel-7402": {"tested_on": "Bel-7402", "assay": "Cytotoxicity against human Bel-7402 cells by SRB assay", "format": "functional, cell-based"}, "[22]": {"assay": "Cytotoxicity against human Zip177 cells by SRB assay", "format": "functional, cell-based"}, "SMMC-7721 [23]": {"tested_on": "SMMC-7721", "assay": "Cytotoxicity against human SMMC-7721 cells assessed as reduction in cell viability by SRB assay", "format": "functional, cell-based"}},
  "data": [
    {"compound": "H-RIRDAIAHGYIVDKV-OH", "values": [
      {"measurement": "IC50", "setting": "HepG2 [1]", "value": 28300, "unit": "nM"}
    ]},
    {"compound": "COc1cc2ccnc3c2c(c1OC)NC=C3", "note": "[AAPTAMINE]", "values": [
      {"measurement": "Activity", "setting": "[2]", "value": 50, "unit": "%"},
      {"measurement": "Activity", "setting": "[3]", "value": 50, "unit": "%"},
      {"measurement": "Activity", "setting": "[4]", "value": 50, "unit": "%"},
      {"measurement": "inhibition in vivo at 20 mg/kg", "setting": "[5]", "value": 40.3, "unit": "%"},
      {"measurement": "Activity", "setting": "[6]", "value": 72.2, "unit": "%"},
      {"measurement": "Activity", "setting": "[7]", "value": 50, "unit": "%"}
    ]},
    {"compound": "C/C=C1/NC(=O)[C@H](Cc2ccccc2)NC(=O)[C@@H](C(C)C)NC(=O)[C@@H]([C@@H](C)CC)NC(=O)[C@H](NC(=O)[C@H](NC(=O)[C@H](CCCN)NC(=O)[C@H]2CCCN2C(=O)[C@H](NC(=O)[C@@H](NC(=O)[C@@H](NC(=O)[C@H](NC(=O)CCCC(C)C)C(C)C)[C@@H](C)O)C(C)C)C(C)C)[C@@H](C)CC)[C@@H](C)OC(=O)[C@H](C(C)C)NC1=O", "values": [
      {"measurement": "IC50", "setting": "SK-HEP1", "value": 2400, "unit": "nM"},
      {"measurement": "IC50", "setting": "PLC-PRF-5 [8]", "value": 5300, "unit": "nM"},
      {"measurement": "IC50", "setting": "Hep 3B2 [9]", "value": 350, "unit": "nM"},
      {"measurement": "IC50", "setting": "HepG2 [10]", "value": 300, "unit": "nM"},
      {"measurement": "IC50", "setting": "[11]", "value": 300, "unit": "nM"}
    ]},
    {"compound": "CCC/C=C/C=C/C(=O)O[C@H]1/C(=C/C(=O)OC)C[C@H]2C[C@H]([C@@H](C)O)OC(=O)C[C@H](O)C[C@@H]3C[C@H](OC(C)=O)C(C)(C)[C@](O)(C[C@@H]4C/C(=C/C(=O)OC)C[C@H](/C=C/C(C)(C)[C@]1(O)O2)O4)O3", "note": "[BRYOSTATIN 1]", "values": [
      {"measurement": "Activity", "setting": "PLC-PRF-5 [12]", "value": 34, "unit": "%"},
      {"measurement": "Activity", "setting": "SMMC-7721 [13]", "value": 32, "unit": "%"},
      {"measurement": "Activity", "setting": "PLC-PRF-5 [14]", "value": 40, "unit": "%"},
      {"measurement": "Activity", "setting": "PLC-PRF-5 [15]", "value": 54, "unit": "%"},
      {"measurement": "Activity", "setting": "SMMC-7721 [16]", "value": 37, "unit": "%"},
      {"measurement": "Activity", "setting": "SMMC-7721 [17]", "value": 56, "unit": "%"},
      {"measurement": "Activity", "setting": "SMMC-7721 [18]", "value": 44, "unit": "%"},
      {"measurement": "Activity", "setting": "SMMC-7721 [19]", "value": 39, "unit": "%"}
    ]},
    {"compound": "COC(=O)[C@H](CCCC(C)C)[C@H]1CC[C@H]2[C@@H]3CC[C@H]4CC(=O)C=C[C@]4(C)[C@H]3CC[C@]12C", "note": "[METHYL SPONGOATE]", "values": [
      {"measurement": "IC50", "setting": "Hep 3B2 [20]", "value": 5000, "unit": "nM"},
      {"measurement": "IC50", "setting": "[21]", "value": 4400, "unit": "nM"},
      {"measurement": "IC50", "setting": "Bel-7402", "value": 1700, "unit": "nM"},
      {"measurement": "IC50", "setting": "[22]", "value": 3000, "unit": "nM"},
      {"measurement": "IC50", "setting": "SMMC-7721 [23]", "value": 2000, "unit": "nM"}
    ]}
  ]
}
